Measured values from ChEMBL document CHEMBL3352112, “Exploiting the therapeutic potential of 8-β-d-glucopyranosylgenistein: synthesis, antidiabetic activity, and molecular interaction with islet amyloid polypeptide and amyloid β-peptide (1-42)” (J Med Chem, 2014).
Values after ≈ are worked out from the molar mass of the structure shown.

Assay: Cytotoxicity against […] HII4E cells after 24 hrs by MTT cell viability assay
Type: cell-based

For `O=C(N[C@H](CO)[C@H](O)c1ccc([N+](=O)[O-])cc1)C(Cl)Cl` [CHLORAMPHENICOL], the IC50 was 143 µg/mL (≈ 443 µM).
